According to patent US5981698A, “Antimicrobial polypeptides” (CyberChemics, Inc., priority 1997, dated 1999):
Peptide text beside a SMILES is read from it.

Tests used:
[1] = tested on: Sac.cerv.; assay: Minimum inhibitory concentration, broth microdilution; format: cell-based; conditions: Yeast Sac.cerv.
Excerpt: (§1) Table III lists the minimum inhibitory concentration (ug/mL) for the various organisms assayed in Mueller-Hinton growth media. Details of the microbiological techniques employed are available to those skilled in the art, for instance from the American Type Tissue Culture Catalog (ATCC, Maryland) or DIFCO Manual, 10th Edition, 1984, pp. 78-80. For instance, a cultured solution of the bacterial strains Escherichia coli (American Tissue Culture Collection, Maryland) ATCC […] and Pseudomonas aeruginosa ATCC 27853 can be tested to model Gram-negative bacteria. Bacteria were grown overnight at 37 C. in Mueller-Hinton broth, reinoculated and incubated at 37 C. to reach the exponential phase of bacterial growth [i.e. a final bacterial suspension cantaining from 100,000 to 500,000 colony-forming units [(CFU)/ml]. In 96 well tissue culture plates, peptides dissolved in distilled water were added to the bacterial suspension at concentrations varying between 1000 to 2 ug/mL derived from serial dilutions, and then incubated overnight at 37 C.

[2] = tested on: Pichia; assay: as above; format: cell-based; conditions: Yeast Pichia
Excerpt: as §1

[3] = Biostability half-life, E. coli; format: in vitro ADME
Excerpt: (§2) Table III lists the approximate pharmacokinetics of synthetic peptides described in the present invention which solubilize readily, persist in conformationally active secondary structures in vivo, and induce lysis of representative bacteria, yeast and fungi. These determinations derive from optical density readings (O.D.) and rely on spectrophotometric absorbance from known initial concentrations as reference standards. The optimal therapeutic index for dosage and effective antimicrobial inhibition of a particular polypeptide or salt thereof range between 10-100 and follow routinely without elaborate laboratory determinations by those skilled in the art of pharmacokinetics and metabolic pathways using, for instance, various cytochrome and liver enzymes in vivo.

[4] = Biostability half-life, yeast; format: in vitro ADME
Excerpt: as §2

[5] = Biostability half-life, mammalian; format: in vitro ADME
Excerpt: as §2

[6] = tested on: Ps. Aruginosa(13883); assay: Minimum inhibitory concentration, broth microdilution in Mueller-Hinton media; format: cell-based, Pseudomonas aeruginosa; conditions: Ps. Aruginosa (ATCC 13883), Gram negative
Excerpt: as §1

[7] = tested on: representative bacteria, yeast and fungi; assay: Antimicrobial action (general statement); format: cell-based
Excerpt: as §1, with “In 96 well tissue culture plates, peptides dissolved in distilled water were added to the bacterial suspension at concentrations varying between 1000 to 2 ug/mL derived from serial dilutions, and then incubated overnight at 37 C.” left out
Table III lists the approximate pharmacokinetics of synthetic peptides described in the present invention which solubilize readily, persist in conformationally active secondary structures in vivo, and induce lysis of representative bacteria, yeast and fungi. These determinations derive from optical density readings (O.D.) and rely on spectrophotometric absorbance from known initial concentrations as reference standards. […]

[8] = tested on: Staph aureus(25923); assay: Minimum inhibitory concentration, broth microdilution in Mueller-Hinton media; format: cell-based; conditions: Staph aureus (ATCC 25923), Gram positive
Excerpt: as §1

[9] = tested on: E. coli(25922); assay: as above; format: cell-based, Escherichia coli; conditions: E. coli (ATCC 25922), Gram negative
Excerpt: as §1

[10] = Solubility (optical density readings); format: physicochemical
Excerpt: as §2

| Compound | Minimum Inhibitory Concentration (MIC) [1] | Minimum Inhibitory Concentration (MIC) [2] | Biostability Half-life E. coli [3] | Biostability Half-life Yeast [4] | Biostability Half-life Mammalian [5] | Minimum Inhibitory Concentration (MIC) [6] | antimicrobial potency [7] | Minimum Inhibitory Concentration (MIC) [8] | Minimum Inhibitory Concentration (MIC) [9] | Solubility [10] | solubility relative to B.t. fragment SEQ. 2 ([10]; ratio SEQ. 1 / SEQ. 2) |
| --- | --- | --- | --- | --- | --- | --- | --- | --- | --- | --- | --- |
| GIGTLLGKKKTKFLKNILKL [SEQ. ID 1, 20-residue antimicrobial peptide, modified from a Bacillus thuringiensis delta-endotoxin fragment] | 16.00 µg/mL | 8.00 µg/mL | 10.00 h | 20.00 h | 30.00 h | 32.00 µg/mL | sub-micromolar | 63.00 µg/mL | 16.00 µg/mL | 85.09 ug/100 g | 5 times |
| CC[C@H](C)[C@H](NC(=O)[C@H](CC(C)C)NC(=O)[C@H](CC(N)=O)NC(=O)[C@H](CCCNC(=N)N)NC(=O)[C@H](CC(C)C)NC(=O)[C@H](CCC(=O)O)NC(=O)[C@H](CO)NC(=O)[C@H](CC(C)C)NC(=O)[C@@H](NC(=O)[C@H](CCCNC(=N)N)NC(=O)[C@H](CCCCN)NC(=O)CNC(=O)[C@@H](NC(=O)[C@H](CC(C)C)NC(=O)[C@H](CO)NC(=O)CNC(=O)[C@@H](N)C(C)C)C(C)C)[C@@H](C)CC)C(N)=O [SEQ. ID 2, VGSLVGKRILSELRNLI] (H-VGSLVGKRILSELRNLI-NH2) |  |  | 10.00 h | 20.00 h | 100.00 h |  |  |  |  | 16.50 ug/100 g |  |
